Tests used:
CAL-120 [1] = assay: normalised viability (% of control), CellTiter-Blue; higher = more viable cells (about 100 = DMSO control); conditions: 100 nM; incubation time: 72 h
Procedure: (§1)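 DSRT, CellTiter-Blue viability, 72 h incubation. Signal is normalised to DMSO and benzethonium chloride controls. Value is the normalised response at dose 3.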

Hs578T [2] = assay: as above; conditions: 100 nM; incubation time: 72 h
Procedure: as §1

MDA-MB-436 [3] = assay: as above; conditions: 100 nM; incubation time: 72 h
Procedure: as §1

DU-4475 [4] = assay: as above; conditions: 10 nM; incubation time: 72 h
Procedure: as §1

HCC1599 [5] = assay: as above; conditions: 100 nM; incubation time: 72 h
Procedure: as §1

BT-474 [6] = assay: as above; conditions: 100 nM; incubation time: 72 h
Procedure: as §1

MFM-223 [7] = assay: as above; conditions: 100 nM; incubation time: 72 h
Procedure: as §1

CAL-51 [8] = assay: as above; conditions: 10 nM; incubation time: 72 h
Procedure: as §1

MDA-MB-453 [9] = assay: as above; conditions: 10 nM; incubation time: 72 h
Procedure: as §1

HCC1143 [10] = assay: as above; conditions: 100 nM; incubation time: 72 h
Procedure: as §1

HCC1937 = assay: normalised viability (% of control), CellTiter-Blue; higher = more viable cells (100 = DMSO, 0 = benzethonium chloride kill control); conditions: 1 nM; incubation time: 72 h
Procedure: (§2)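 DSRT, CellTiter-Blue viability, 72 h incubation. Signal is normalised to DMSO and benzethonium chloride controls. Value is the normalised response at dose 1.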

MDA-MB-468 = assay: as above; conditions: 1 nM; incubation time: 72 h
Procedure: as §2

SK-BR-3 = assay: as above; conditions: 1 nM; incubation time: 72 h
Procedure: as §2

CAL-120 [11] = assay: as above; conditions: 1 nM; incubation time: 72 h
Procedure: as §2

BT-549 = assay: as above; conditions: 1 nM; incubation time: 72 h
Procedure: as §2

Hs578T [12] = assay: as above; conditions: 1 nM; incubation time: 72 h
Procedure: as §2

MDA-MB-436 [13] = assay: as above; conditions: 1 nM; incubation time: 72 h
Procedure: as §2

MDA-MB-231 = assay: as above; conditions: 1 nM; incubation time: 72 h
Procedure: as §2

DU-4475 [14] = assay: as above; conditions: 1 nM; incubation time: 72 h
Procedure: as §2

HCC1599 [15] = assay: as above; conditions: 1 nM; incubation time: 72 h
Procedure: as §2

CAL-148 [16] = assay: as above; conditions: 1 nM; incubation time: 72 h
Procedure: as §2

BT-474 [17] = assay: as above; conditions: 1 nM; incubation time: 72 h
Procedure: as §2

MFM-223 [18] = assay: as above; conditions: 1 nM; incubation time: 72 h
Procedure: as §2

CAL-85-1 [19] = assay: as above; conditions: 1 nM; incubation time: 72 h
Procedure: as §2

CAL-51 [20] = assay: as above; conditions: 1 nM; incubation time: 72 h
Procedure: as §2

MDA-MB-453 [21] = assay: as above; conditions: 1 nM; incubation time: 72 h
Procedure: as §2

HCC1143 [22] = assay: as above; conditions: 1 nM; incubation time: 72 h
Procedure: as §2

HDQ-P1 = assay: as above; conditions: 1 nM; incubation time: 72 h
Procedure: as §2

CAL-148 [23] = assay: normalised viability (% of control), CellTiter-Blue; higher = more viable cells (about 100 = DMSO control); conditions: 1000 nM; incubation time: 72 h
Summary of the method: (§3)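 384-well plates were pre-loaded with compound in 5 µl medium before 20 µl of breast cancer cell suspension was seeded. Following 72 h incubation, 2.5 µl CellTiter-Blue reagent was added for 2 h at 37 °C. Fluorescence was read at 560/590 nm and plates were normalised to vehicle (100) and a positive kill control (0), checked by Z'-factor. Normalised viability is reported at a single listed concentration of the series.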

CAL-85-1 [24] = assay: as above; conditions: 1000 nM; incubation time: 72 h
Summary of the method: as §3

Row | Compound | normalised viability (CAL-120 [1]) | normalised viability (Hs578T [2]) | normalised viability (MDA-MB-436 [3]) | normalised viability (DU-4475 [4]) | normalised viability (HCC1599 [5]) | normalised viability (BT-474 [6]) | normalised viability (MFM-223 [7]) | normalised viability (CAL-51 [8]) | normalised viability (MDA-MB-453 [9]) | normalised viability (HCC1143 [10]) | normalised viability (HCC1937) | normalised viability (MDA-MB-468) | normalised viability (SK-BR-3) | normalised viability (CAL-120 [11]) | normalised viability (BT-549) | normalised viability (Hs578T [12]) | normalised viability (MDA-MB-436 [13]) | normalised viability (MDA-MB-231) | normalised viability (DU-4475 [14]) | normalised viability (HCC1599 [15]) | normalised viability (CAL-148 [16]) | normalised viability (BT-474 [17]) | normalised viability (MFM-223 [18]) | normalised viability (CAL-85-1 [19]) | normalised viability (CAL-51 [20]) | normalised viability (MDA-MB-453 [21]) | normalised viability (HCC1143 [22]) | normalised viability (HDQ-P1) | normalised viability (CAL-148 [23]) | normalised viability (CAL-85-1 [24])
1 | CC1=C(/C=C/C(C)=C/C=C/C(C)=C/C(=O)O)C(C)(C)CCC1 [Tretinoin] | 77.7% | 91.5% | 99.5% | 100% | 92.2% | 122% | 86.2% | 100% | 92.9% | 86.2% | 117% | 109% | 97.7% | 86.9% | 98.4% | 116% | 90.4% | 97.2% | 91.8% | 99.3% | 103% | 91.1% | 98% | 87.1% | 93.5% | 100% | 94.9% | 114% | 81.2% | 82.2%
2 | C1CN1c1nc(N2CC2)nc(N2CC2)n1 [Triethylenemelamine] | 109% | 107% | 105% | 102% | 106% | 113% | 93.8% | 100% | 96.6% | 105% | 86.6% | 102% | 99% | 103% | 107% | 108% | 98.5% | 96.2% | 104% | 76.4% | 108% | 117% | 100% | 107% | 101% | 104% | 101% | 109% | 110% | 98.4%
3 | Oc1ncc(N(CCCl)CCCl)c(O)n1 [Uracil mustard] | 87.7% | 116% | 102% | 98.6% | 83.5% | 106% | 90.6% | 98.6% | 107% | 84.8% | 101% | 104% | 97.3% | 82.3% | 101% | 109% | 96.3% | 99.4% | 88.3% | 94.5% | 103% | 86.6% | 97.4% | 88.9% | 90.7% | 99.1% | 95.7% | 110% | 111% | 93.8%
4 | CCCCC(=O)OCC(=O)[C@]1(O)Cc2c(O)c3c(c(O)c2[C@@H](O[C@H]2C[C@H](NC(=O)C(F)(F)F)[C@H](O)[C@H](C)O2)C1)C(=O)c1c(OC)cccc1C3=O [Valrubicin] | 77.3% | 79.7% | 122% | 89.4% | 92.2% | 109% | 91.9% | 92.2% | 103% | 86.4% | 81.6% | 84.3% | 85.5% | 92.9% | 107% | 103% | 106% | 79.7% | 93.9% | 75.7% | 88.8% | 92.9% | 90.3% | 83.5% | 89.7% | 97.6% | 86.5% | 96.8% | 2.49% | 61.3%
5 | CCCS(=O)(=O)Nc1ccc(F)c(C(=O)c2c[nH]c3ncc(-c4ccc(Cl)cc4)cc23)c1F [Vemurafenib] | 92.7% | 110% | 81.6% | 107% | 98% | 111% | 87.5% | 97.1% | 107% | 80.1% | 119% | 110% | 92.2% | 95.3% | 114% | 112% | 91.1% | 113% | 88% | 83.4% | 98.4% | 99.8% | 90.7% | 91.6% | 94.4% | 89.8% | 93.8% | 96.3% | 93.9% | 83.8%

Source: the supplement of paper PMC4862054
